Experiment: passive permeability, PAMPA, ADME assay (AID 1508612)
Conditions: pH 7.4, 30.0 min, 50.0 µM

SMILES | Papp
COc1cccc(C(=O)Nc2ccc3oc(-c4ccc5ccccc5c4)nc3c2)c1 | 533 ×10⁻⁶ cm/s
Cc1cc(/C=C2/C(=O)Nc3ccccc32)cc(C)c1O | 976 ×10⁻⁶ cm/s
CCN(CCN(C)C)C(=O)C1CCN(S(=O)(=O)c2c(C)noc2/C=C/c2ccccc2F)CC1 | > 1000 ×10⁻⁶ cm/s
O=C(Nc1ccc(S(=O)(=O)Nc2nccs2)cc1)c1cc(-c2ccccc2)nc2ccccc12 | 6.3 ×10⁻⁶ cm/s
Nc1nc2c(s1)C(c1cc(Cl)ccc1F)CC(=O)N2 (centres undefined) | 476 ×10⁻⁶ cm/s
Fc1cc(Nc2nc(-c3ccncc3)nc3ccccc23)ccc1-c1ccc2[nH]ncc2c1 | 42 ×10⁻⁶ cm/s
CN(C)C(=O)c1nc(-c2ccc(Cl)cc2Cl)c2cnccn12 | > 1000 ×10⁻⁶ cm/s
O=C(Nc1ccc(N2CCC(N3CCCCC3)CC2)c(C(=O)O)c1)c1ccc(Br)cc1 | < 1 ×10⁻⁶ cm/s
COc1ccccc1CNc1ccc(S(=O)(=O)Nc2nccs2)cc1 | 512 ×10⁻⁶ cm/s
Nc1ccccc1OCCn1c(CCNC(=O)C2CCCCC2)nc2ccccc21 | 746 ×10⁻⁶ cm/s
O=[S+]([O-])(Nc1ccccc1)c1ccc(NCc2cccc(Cl)c2F)cc1 | 383 ×10⁻⁶ cm/s
Nc1c(S(=O)(=O)c2cccs2)c2nc3ccccc3nc2n1Cc1ccccc1 | > 1000 ×10⁻⁶ cm/s
CC(Nc1ccc([S+](=O)([O-])Nc2nccs2)cc1)c1ccccc1 (centres undefined) | 641 ×10⁻⁶ cm/s
NC(=O)C1CCN(c2nccc(-c3ccc4c(c3)OCCCO4)n2)CC1 | 653 ×10⁻⁶ cm/s
CC(C)COc1ccc(-c2csc(N3CCC(C(N)=O)CC3)n2)cc1 | 48.4 ×10⁻⁶ cm/s
Cc1cc(C)cc(NS(=O)(=O)c2ccc3[nH]cc(C(=O)NCc4ccco4)c(=O)c3c2)c1 | 9.3 ×10⁻⁶ cm/s
Brc1ccccc1-c1nc(NCc2ccc(-c3cccnc3)cc2)c2ccccc2n1 | > 1000 ×10⁻⁶ cm/s
Cc1ccc(-c2nc3ccccc3o2)cc1NC(=O)COc1ccccc1 | 791 ×10⁻⁶ cm/s
COc1ccc2[nH]c(=O)c(-c3noc(-c4ccccc4)n3)cc2c1 | 760 ×10⁻⁶ cm/s
CC(C)Oc1cccc(-c2cnc(N3CCC(C(N)=O)CC3)s2)c1 | 810 ×10⁻⁶ cm/s
O=C(Nc1ccc([S+](=O)([O-])Nc2nccs2)cc1)c1ccccn1 | 3 ×10⁻⁶ cm/s
COc1ccc(C2(C(=O)N3CCC(n4cc(-c5nc(C)no5)nn4)CC3)CC2)cc1 | 34.9 ×10⁻⁶ cm/s
CC(=O)NCc1ccc(-c2csc(Nc3cc(C)cc(C)c3)n2)o1 | > 1000 ×10⁻⁶ cm/s
COc1cccc(-c2noc(Nc3ccc4c(c3)OCCO4)n2)c1 | 202 ×10⁻⁶ cm/s
CCOC(=O)c1ccc(-n2c(C)cc(-c3nnc4n3CCCCC4)c2C)cc1 | 353 ×10⁻⁶ cm/s
COc1cc(C2c3cc(O)c(OC)cc3CC3C(=O)OCC32)ccc1O (centres undefined) | 129 ×10⁻⁶ cm/s
COc1ccc(Nc2ncc(C(=O)Nc3cccc(Cl)c3)c3ccccc23)cc1 | 67.1 ×10⁻⁶ cm/s

SMILES | Papp
C=CCc1ccc(O)c(-c2ccc(O)c(CC=C)c2)c1 | > 1000 ×10⁻⁶ cm/s
O=C(Nc1nc(-c2ccccc2)cs1)c1ccncc1NS(=O)(=O)c1c(F)cc(F)cc1F | 459 ×10⁻⁶ cm/s
OCCNc1ncnc2c1ncn2[C@@H]1O[C@@H](CO)[C@H](O)[C@@H]1O | < 1 ×10⁻⁶ cm/s
Cn1c(=O)c2c(nc(Cl)n2Cc2ccc(Cl)cc2)n(C)c1=O | > 1000 ×10⁻⁶ cm/s
NC(=O)COc1ccc(C2CC(=O)Nc3n[nH]c(Nc4ccccc4)c32)cc1 (centres undefined) | 2.8 ×10⁻⁶ cm/s
CNC(=O)c1ccc(-c2cnc3cnc(C(=O)N(C)c4ccc(Cl)cc4)cn23)cc1 | 120 ×10⁻⁶ cm/s
Cc1cccc(C)c1NC(=O)c1nc(SC(C)C)ncc1Cl | > 1000 ×10⁻⁶ cm/s
C=C1c2cccc(O)c2C(O)=C2C(=O)[C@]3(O)C(O)=C(C(N)=O)C(=O)[C@@H](N(C)C)[C@@H]3[C@@H](O)[C@H]12 | < 1 ×10⁻⁶ cm/s
O=C(COc1ccccc1)NCC(c1cccs1)S(=O)(=O)c1ccc(Cl)cc1 (centres undefined) | 592 ×10⁻⁶ cm/s
CCOc1ccc(N2C(=O)c3n[nH]c(-c4cccs4)c3C2c2cccc(F)c2)cc1 (centres undefined) | 82.4 ×10⁻⁶ cm/s
COc1cccc(CNc2ccc(S(=O)(=O)Nc3cc(C)on3)cc2)c1O | 62.9 ×10⁻⁶ cm/s
Fc1cnc(-c2ccccc2C(F)F)nc1NCc1ccc(-c2cccnc2)cc1 | > 1000 ×10⁻⁶ cm/s
CC[C@@]1(O)C(=O)OCc2c1cc1n(c2=O)Cc2c-1nc1cc(F)c(C)c3c1c2[C@@H](N)CC3 | 370 ×10⁻⁶ cm/s
O=C1CCCCc2cc(O)c(O)cc21 | 20.9 ×10⁻⁶ cm/s
O=C(CCCCCCC(=O)Nc1ccccc1)NO | 63.4 ×10⁻⁶ cm/s
COc1ccc(OCc2ccc(-c3nc(C#N)c(NC(C)c4ccccc4)o3)o2)cc1 (centres undefined) | 20.9 ×10⁻⁶ cm/s
CCCc1cc(C)[nH]c(=O)c1CNC(=O)c1cc(-c2ccc(N3CCN(C(C)C)CC3)nc2)cc2c1cnn2C(C)C | > 1000 ×10⁻⁶ cm/s
CC(=O)c1ccc(N2CCN(S(=O)(=O)c3cc4c(cc3Cl)NC(=O)C4)CC2)cc1 | 558 ×10⁻⁶ cm/s
Cc1ccc(S(=O)(=O)Nc2cnccc2C(=O)Nc2ccc(N3CCOCC3)cc2)cc1 | 53.3 ×10⁻⁶ cm/s
O=S(=O)(c1ccc(Cl)cc1)c1ccccn1 | 407 ×10⁻⁶ cm/s
Cc1ccc(-n2nc3c(=O)n(CCCC(=O)NC(C)c4ccccc4)nc(C)c3c2C)cc1 (centres undefined) | 695 ×10⁻⁶ cm/s
COc1ccc(-n2c(C)c(C(C)=O)c3cc(O)ccc32)cc1 | 415 ×10⁻⁶ cm/s
Cc1ccc(-n2nc3c(N4CCCC(C(=O)NCc5ccccc5C)C4)nnc(C)c3c2C)cc1 (centres undefined) | 173 ×10⁻⁶ cm/s
COc1cc(/C=C(\C#N)c2nc3ccccc3[nH]2)ccc1OCc1ccc(F)cc1 | 641 ×10⁻⁶ cm/s
Cc1ccc(S(=O)(=O)Nc2cnccc2C(=O)Nc2nc(-c3ccccc3Cl)cs2)cc1 | 46 ×10⁻⁶ cm/s
COCC(C)Nc1ncnc2c1cnn2-c1ccc(C)c(C)c1 (centres undefined) | 690 ×10⁻⁶ cm/s
CC(=O)Nc1cccc(Nc2nc3ccccc3n3c(C)nnc23)c1 | 266 ×10⁻⁶ cm/s
